According to PubChem BioAssay AID248 (DTP/NCI, 2004):
Toxic doses and inconclusive results are not listed. No stated cut-off is given here; in the data, active means T/C of 150% or more; inactive means T/C below 125%.

System: L1210 leukemia ip in BDF1 mice, survival T/C
Assay: NCI In Vivo Anticancer Drug Screen. Data for tumor model L1210 Leukemia (intraperitoneal) in B6D2F1 (BDF1) mice
Settings: endpoint: mean survival time, higher = longer survival
Outline: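 Antitumor effect is assessed in tumor-bearing animals. Survival in the compound arm is compared with a vehicle-dosed control arm and expressed as their quotient.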

[1] = dose: 25.0 mg/kg/injection, schedule: Q01DX009 (ip), vehicle: saline with Tween-80
[2] = dose: 25.0 mg/kg/injection, schedule: Q04DX002 (ip), vehicle: saline with Tween-80
[3] = dose: 50.0 mg/kg/injection, schedule: Q01DX001 (ip), vehicle: carboxymethylcellulose (CMC)
[4] = dose: 100.0 mg/kg/injection, schedule: Q01DX001 (ip), vehicle: carboxymethylcellulose (CMC)
[5] = dose: 200.0 mg/kg/injection, schedule: Q01DX001 (ip), vehicle: carboxymethylcellulose (CMC)
[6] = dose: 400.0 mg/kg/injection, schedule: Q01DX001 (ip), vehicle: carboxymethylcellulose (CMC)
[7] = dose: 100.0 mg/kg/injection, schedule: Q04DX003 (ip), vehicle: saline with Tween-80
[8] = dose: 200.0 mg/kg/injection, schedule: Q04DX003 (ip), vehicle: saline with Tween-80
[9] = dose: 400.0 mg/kg/injection, schedule: Q04DX003 (ip), vehicle: saline with Tween-80
[10] = dose: 100.0 mg/kg/injection, schedule: Q01DX009 (ip), vehicle: Klucel (hydroxypropylcellulose) (HPC)
[11] = dose: 200.0 mg/kg/injection, schedule: Q01DX009 (ip), vehicle: Klucel (hydroxypropylcellulose) (HPC)
[12] = dose: 400.0 mg/kg/injection, schedule: Q01DX009 (ip), vehicle: Klucel (hydroxypropylcellulose) (HPC)
[13] = dose: 50.0 mg/kg/injection, schedule: Q01DX009 (ip), vehicle: saline
[14] = dose: 100.0 mg/kg/injection, schedule: Q01DX009 (ip), vehicle: saline
[15] = dose: 200.0 mg/kg/injection, schedule: Q01DX009 (ip), vehicle: saline
[16] = dose: 100.0 mg/kg/injection, schedule: Q04DX003 (ip), vehicle: Klucel (hydroxypropylcellulose) (HPC)
[17] = dose: 200.0 mg/kg/injection, schedule: Q04DX003 (ip), vehicle: Klucel (hydroxypropylcellulose) (HPC)
[18] = dose: 400.0 mg/kg/injection, schedule: Q04DX003 (ip), vehicle: Klucel (hydroxypropylcellulose) (HPC)
[19] = dose: 100.0 mg/kg/injection, schedule: Q01DX001 (ip), vehicle: saline
[20] = dose: 200.0 mg/kg/injection, schedule: Q01DX001 (ip), vehicle: saline
[21] = dose: 100.0 mg/kg/injection, schedule: Q01DX001 (ip), vehicle: Klucel (hydroxypropylcellulose) (HPC)
[22] = dose: 200.0 mg/kg/injection, schedule: Q01DX001 (ip), vehicle: Klucel (hydroxypropylcellulose) (HPC)
[23] = dose: 400.0 mg/kg/injection, schedule: Q01DX001 (ip), vehicle: Klucel (hydroxypropylcellulose) (HPC)

Measured: T/C

NNCCO
inactive: [1] 97 % of control | [2] 94 % of control | dose: 50.0 mg/kg/injection, schedule: Q01DX009 (ip), vehicle: saline with Tween-80 106 % of control | dose: 50.0 mg/kg/injection, schedule: Q04DX002 (ip), vehicle: saline with Tween-80 105 % of control | dose: 100.0 mg/kg/injection, schedule: Q04DX002 (ip), vehicle: saline with Tween-80 106 % of control

Nc1ncnc2c1ncn2C1OC(C(O)CO)C(O)C1N (stereo not drawn)
inactive: [3] 111 % of control | [4] 105 % of control | [5] 108 % of control | [6] 108 % of control

CC(=O)C(C)=O
inactive: [7] 95 % of control | [8] 101 % of control | [9] 106 % of control

O=C(Nc1ccccc1F)OCCOc1ccc([N+](=O)[O-])cc1
inactive: [10] 96 % of control | [11] 100 % of control | [12] 94 % of control

CC1Cc2ccccc2C1=O (stereo not drawn)
inactive: [7] 98 % of control | [8] 98 % of control | [9] 103 % of control

CC(C)CCCC(C)CCO (stereo not drawn)
inactive: [13] 97 % of control | [14] 105 % of control | [15] 103 % of control

O=[N+]([O-])c1cccc(S(=O)(=O)N2CCN(S(=O)(=O)c3cccc([N+](=O)[O-])c3)C2)c1
inactive: [10] 95 % of control | [16] 97 % of control | [11] 103 % of control | [17] 93 % of control | [12] 97 % of control | [18] 97 % of control

CC(C)(C)S/C=C/C(N)=O
inactive: [13] 98 % of control | [19] 91 % of control | [14] 96 % of control | [20] 93 % of control | [15] 94 % of control

O=C(O)Cc1c(-c2ccccn2)[nH]c2ccccc12
inactive: dose: 75.0 mg/kg/injection, schedule: Q01DX001 (ip), vehicle: acetone 103 % of control | dose: 150.0 mg/kg/injection, schedule: Q01DX001 (ip), vehicle: acetone 102 % of control | dose: 300.0 mg/kg/injection, schedule: Q01DX001 (ip), vehicle: acetone 94 % of control

CCOc1cc(C#N)c(OCC)cc1N
inactive: [19] 103 % of control | [20] 101 % of control

CC(C)OC1=CC2C(=CCC3C2(C)C(=O)CC2(C)C(C(C)(O)C(=O)/C=C/C(C)(C)O)C(O)CC32C)C(C)(C)C1=O (stereo not drawn)
inactive: dose: 37.5 mg/kg/injection, schedule: Q04DX002 (ip), vehicle: saline with Tween-80 101 % of control | dose: 75.0 mg/kg/injection, schedule: Q04DX002 (ip), vehicle: saline with Tween-80 93 % of control | dose: 150.0 mg/kg/injection, schedule: Q04DX002 (ip), vehicle: saline with Tween-80 108 % of control

COc1cc2cc(C)c(C)cc2cc1OC
inactive: [21] 98 % of control | [10] 103 % of control | [22] 101 % of control | [11] 110 % of control | [23] 98 % of control | [12] 109 % of control

COC(=O)CC(Cc1cc(OC)ccc1OC)(C(=O)OC)C(=O)OC
inactive: dose: 12.5 mg/kg/injection, schedule: Q04DX003 (ip), vehicle: Klucel (hydroxypropylcellulose) (HPC) 102 % of control | dose: 25.0 mg/kg/injection, schedule: Q04DX003 (ip), vehicle: Klucel (hydroxypropylcellulose) (HPC) 94 % of control | dose: 50.0 mg/kg/injection, schedule: Q04DX003 (ip), vehicle: Klucel (hydroxypropylcellulose) (HPC) 98 % of control | [21] 106 % of control | [16] 105 % of control | [22] 97 % of control | [17] 103 % of control | [23] 98 % of control | [18] 105 % of control

C(=N\Nc1c2ccccc2nc2ccccc12)/c1ccc2c(c1)OCO2
inactive: [19] 89 % of control | [20] 100 % of control | dose: 400.0 mg/kg/injection, schedule: Q01DX001 (ip), vehicle: saline 89 % of control

c1ccc2sc(SCCSc3nc4ccccc4s3)nc2c1
inactive: dose: 6.25 mg/kg/injection, schedule: Q01DX009 (ip), vehicle: saline with Tween-80 93 % of control | dose: 6.25 mg/kg/injection, schedule: Q04DX002 (ip), vehicle: saline with Tween-80 100 % of control | dose: 12.5 mg/kg/injection, schedule: Q01DX009 (ip), vehicle: saline with Tween-80 97 % of control | dose: 12.5 mg/kg/injection, schedule: Q04DX002 (ip), vehicle: saline with Tween-80 89 % of control | [1] 95 % of control | [2] 89 % of control

NC(N)=NO
inactive: dose: 9.37 mg/kg/injection, schedule: Q01DX009 (ip), vehicle: saline 107 % of control | dose: 18.75 mg/kg/injection, schedule: Q01DX009 (ip), vehicle: saline 107 % of control | dose: 37.5 mg/kg/injection, schedule: Q01DX009 (ip), vehicle: saline 109 % of control | dose: 75.0 mg/kg/injection, schedule: Q01DX009 (ip), vehicle: saline 111 % of control | dose: 100.0 mg/kg/injection, schedule: Q01DX Z (ip), vehicle: saline 115 % of control | dose: 144.0 mg/kg/injection, schedule: Q03HX024 (ip), vehicle: saline 123 % of control | dose: 150.0 mg/kg/injection, schedule: Q01DX Z (ip), vehicle: other 112 % of control | dose: 217.0 mg/kg/injection, schedule: Q03HX024 (ip), vehicle: saline 117 % of control | dose: 300.0 mg/kg/injection, schedule: Q01DX Z (ip), vehicle: other 121 % of control | dose: 300.0 mg/kg/injection, schedule: Q01DX Z (ip), vehicle: saline 122 % of control | dose: 325.0 mg/kg/injection, schedule: Q03HX024 (ip), vehicle: saline 122 % of control | dose: 400.0 mg/kg/injection, schedule: Q04DX003 (ip), vehicle: saline 104 % of control | dose: 487.0 mg/kg/injection, schedule: Q03HX024 (ip), vehicle: saline 113 % of control | dose: 600.0 mg/kg/injection, schedule: Q04DX003 (ip), vehicle: saline 91 % of control

CCOC(=O)NP(=O)(Nc1ccc(C)cc1)Nc1ccc(C)cc1
inactive: [3] 104 % of control | [4] 98 % of control | [5] 95 % of control | [6] 98 % of control

CCCN(CCC)C(=O)C(=O)OCC
inactive: dose: 6.25 mg/kg/injection, schedule: Q04DX003 (ip), vehicle: saline with Tween-80 102 % of control | dose: 12.5 mg/kg/injection, schedule: Q04DX003 (ip), vehicle: saline with Tween-80 94 % of control | dose: 25.0 mg/kg/injection, schedule: Q04DX003 (ip), vehicle: saline with Tween-80 98 % of control

Cc1ccc(C(C)C)cc1NC(=O)NCCCl
inactive: dose: 20.0 mg/kg/injection, schedule: Q04DX003 (ip), vehicle: Klucel (hydroxypropylcellulose) (HPC) 94 % of control | dose: 40.0 mg/kg/injection, schedule: Q04DX003 (ip), vehicle: Klucel (hydroxypropylcellulose) (HPC) 97 % of control | dose: 80.0 mg/kg/injection, schedule: Q04DX003 (ip), vehicle: Klucel (hydroxypropylcellulose) (HPC) 102 % of control | [16] 112 % of control | [17] 112 % of control

CC(C)CCCC(C)C1CCC2C3CCC4(C)CCCCC4(C)C3CCC12C (stereo not drawn)
inactive: [21] 98 % of control | [22] 94 % of control | [23] 109 % of control

O=C(O)c1cc(I)c(OCc2ccccc2)c(I)c1
inactive: [4] 100 % of control | [5] 94 % of control | [6] 96 % of control

CC(=O)c1ccc(NCC2N=C(N)N=C(N)N2c2ccccc2)cc1 (stereo not drawn)
inactive: [10] 97 % of control | [16] 98 % of control | [11] 96 % of control | [17] 90 % of control

CCCCCCCCCCCCP(=O)(O)O
inactive: dose: 75.0 mg/kg/injection, schedule: Q01DX001 (ip), vehicle: other 94 % of control | dose: 150.0 mg/kg/injection, schedule: Q01DX001 (ip), vehicle: other 97 % of control

c1ccc(C(=C(c2ccccc2)c2ccccc2)c2ccccc2)cc1
inactive: [10] 99 % of control | [16] 97 % of control | [11] 94 % of control | [17] 97 % of control | [12] 92 % of control | [18] 96 % of control
